Assays:
Bowes-Melanoma-Zellen = settings: Kooistra et al.; cited from earlier work
CHO-Zellen [1] = assay: t-PA production in transformed CHO cells, medium with 7.5% FKS, supernatant, direct chromogenic assay (DCA); type: cell-based, chinesische Hamster
Excerpt: Der Vektor für die t-PA-Produktion wurde in einem Subklon, CHO-K1-DUX B11, integriert (Urlaub et al., Proceedings of the National Academy of Science, USA, 77: 4216-4220, 1980). Diese Zell-Linie, eine Dihydrofolat Reduktase negative Mutante (DHFR-), ist für eine DHFR-abhängige Selektion der transfizierten Zellklone geeignet. Der Vektor für die humane c-DNA kann ein bekannter Plasmid-Vektor pBR-322 oder deren Abkömmling von Escherichia coli sein. Die Promotorregion für das in Frage kommende Gen und für das DHFR-Gen stammt aus SV 40 und die Terminationsregion für beide Gene von einem Hepatitis B-Oberflächenantigen. In den Beispielen wurden CHO-K1-DUX B11-Zellen, die durch die Plasmide pETPER oder pEPEFR transformiert sind, verwendet (siehe EP-A 0117059).
(§1) Die Zellkulturen werden bei 37°C in einem Hereaus-Brutschrank inkubiert und mit einem Kohlendioxid-Luftgemisch von 7,5% CO₂ in einer relativen Luftfeuchtigkeit von 100% belüftet. Je nach Verfahrensansatz werden unterschiedliche Kulturgefäße benutzt: Spinnergefäße für 100-1000 ml Medium, Roux-Schalen (Nunc) 175 cm² (70-100 ml Medium), 75 cm² (30-50 ml Medium), 25 cm² (7-10 ml Medium) und Mehrfachkulturschalen von Costar mit 2 cm² für 1 ml Kulturen. Für die Stammhaltung werden die Zellen in einer Dichte von 0,2-0,3 x 10⁶ Zellen/ml eingesetzt und alle 2-3 Tage subkloniert.
Die Protein-Produktion stimulierenden Substanzen können zu den verschiedenen Zeitpunkten jeweils in einer 1:100 Verdünnung zugegeben werden, d.h. sie wurden zuerst in Medium gelöst oder, wenn sie schwerlöslich sind, erst in Äthylalkohol gelöst und danach in Medium zugesetzt und dann das diese Substanz enthaltende Medium dem zellenthaltenden Medium im Verhältnis 1:100 v/v zugegeben.
In den folgenden Beispielen wurden, um die Stimulierung der t-PA-Synthese hervorzurufen, Zellen einer exponentiell wachsenden Kultur entnommen und in Plastikröhrchen (Falcon) 10 Min. bei 1000 x g in einer Beckmann T 3-6 Zentrifuge abzentrifugiert. Nach Dekantieren des Überstandes wurde das Zellpellet mit frischem Medium resuspendiert.
(§2) Für die Produktion von t-PA in serumhaltigem Medium wurde als frisches Medium F12/DMEM + 7,5% FKS + Gentamycin verwendet. Die resultierende Suspension kann in 2 cm² 24 Wells-Platten bei einer Zelldichte von 0,2-0,3 x 10⁶ Zellen/ml angesetzt werden.
Aliquots von Zellüberständen und Zellextrakten wurden zu verschiedenen Zeitpunkten abgenommen bzw. hergestellt. Die Messung der Proben erfolgte entweder sofort oder nach Aufbewahrung bei -20°C mit folgenden Methoden:
Von dem synthetischen Peptidsubstrat S-2288 (D-H-Ile-Pro-Arg-p-Nitroanilin) der Firma Kabi Diagnostica wird durch das t-PA p-Nitroanilin als Reaktionsprodukt gebildet. Die Aktivität von t-PA ist zur Bildung von p-Nitroanilin proportional, die bei […], 37°C, gemessen wird.
Die spektrophotometrische Bestimmung der Enzymkinetik wurde mit einem ACP-5010-Analysengerät der Firma Eppendorf automatisch durchgeführt.
Die Aktivität des Enzyms wurde anhand dieses vorgegebenen Standards berechnet. Eine t-PA-Standardreihe von 1-15 µg/ml wurde mit einem Laborstandard hergestellt, der zu 72% aus 1-kettigem Material besteht.
Die Substratlösung (100 mM Tris/106 mM NaCl) wurde in einer Konzentration von 50 mM eingesetzt.

CHO-Zellen [2] = assay: Cell growth / cell division of transformed CHO cells; type: cell-based, chinesische Hamster; settings: compared with Buttersäure
Experimental: as §1, §2
Für die Produktion von t-PA in serumfreiem Medium wurden die Zellen zuvor 3-4 Tage in einem Medium von 1-2% FKS adaptiert, wieder abzentrifugiert und das Zellpellet in serumfreiem Medium resuspendiert und anschließend in 2 cm² 24 Wells-Platten in einer Zelldichte von 0,4-0,5 x 10⁶ Zellen/ml überführt.

CHO-Zellen [3] = assay: Extracellular protein content and [3H]-leucine incorporation in CHO cells, serum-free medium; type: cell-based, chinesische Hamster

SMILES	Einfluß auf die Synthese von t-PA (Bowes-Melanoma-Zellen)	minimal effective concentration (CHO-Zellen [1]; CHO, read-out: für die t-PA-Stimulierung notwendige Konzentrationen)	% Steigerung der t-PA-Synthese Durchschnitt (CHO-Zellen [1]; Table 3, mean ± SE, n = 3-24, production runs of 3 to 4 days, acids added day 0 to 3, 1 ml supernatant vs control (0%), 7,5% FKS)	% Steigerung der t-PA-Synthese Maximum (CHO-Zellen [1]; Table 3, single sample, 1 ml supernatant vs control (0%), 7,5% FKS, its concentration, addition and sampling day in brackets in Tables 3/3A)	optimaler Dosisbereich (CHO-Zellen [1]; Table 3, stimulation of t-PA synthesis, medium with 7,5% FKS, bracketed value = concentration of the single (maximum) sample)	Steigerung der t-PA-Produktion (CHO-Zellen [1]; Table 4, Applikationstag 0, after 48 h growth, 7,5% FKS, 1 mM or 5 mM, 1 ml supernatant vs control (0%), mean ± SE)	Steigerung der t-PA-Produktion (CHO-Zellen [1]; Table 4, Applikationstag 1, after 48 h growth, 7,5% FKS, 1 mM or 5 mM, 1 ml supernatant vs control (0%), mean ± SE)	Steigerung der t-PA-Produktion (CHO-Zellen [1]; day 4, medium with 7,5% FKS (Abb. 7))	prozentuale Steigerung niedriger als Buttersäure (CHO-Zellen [1]; difference to Buttersäure)	Hemmung des Zellwachstums (CHO-Zellen [2])	Einbau von [³H]-Leucin (CHO-Zellen [3])	extrazellulärer Proteingehalt gegenüber der Kontrolle (CHO-Zellen [3])
CCCC(=O)Nc1ncnc2c1ncn2[C@@H]1O[C@@H]2COP(=O)(O)O[C@H]2[C@H]1OC(=O)CCC [Dibutyryl c-AMP]	keinen Einfluß											
CCC(=O)O [Propionsäure]		5000 to 10000 µM	28,0 ± 2,5%	45,5%	5-10 mM (10 mM)	28,7 ± 9,3%	24,4 ± 4,1%	31,8%	ca. 14%	in geringerem Maße	nur geringfügig gesteigert	nur gering erhöht
